{"source": "patent US9211310B2", "about": "“Use of a Chinese medicine composition in preparing medicaments for treating secondary prevention of myocardial infarction” (TASLY PHARMACEUTICAL GROUP CO., LTD, priority 2010, dated 2015)", "tested_on": "patients after acute myocardial infarction", "assay": "Life quality, Seattle Angina Questionnaire (SAQ), same clinical trial", "format": "in vivo, human", "settings": "PP", "description": "3508 patients who were in accordance with the diagnostic standards of AMI for 28 days to 2 years and differentiated as Qi deficiency and blood stagnation syndrome by TCM were studied. 0.5 g Chinese medicine composition prepared by the method of EXAMPLE 1 (Coded as QSYQ) was administrated half an hour after meal, 3 times per day.\nThere were 19 questions in the Seattle angina questionnaire (SAQ), including 5 parts: physical limitation (PL), anginal stability (AS), anginal frequency (AF), treatment satisfaction (TS) and disease perception (DP). After being given necessary explanation by doctors, the questions were answered independently by patients.\nThey included the overall survival time, angina pectoris score, TCM symptom score and life quality score, where angina pectoris score, TCM symptom score and life quality score were evaluated at randomization, in 1st, 3rd, 6th, 9th, 12th month after treatment and 18th month after follow-up.\nAll evaluation results of SAQ were described during the period of observation, and Wilcoxon rank sum test was used for inter-group comparison.\nThe evaluation results in the SAQ were depicted in different observations, and inter-group comparison was tested by Wilcoxon Rank-sum test.", "data": [{"smiles": "CC(=O)Oc1ccccc1C(=O)O", "note": "[Control group, aspirine]", "values": [{"measurement": "SAQ Question 1-4: Not limited, percent of patients", "setting": "Follow-up", "value": "(53.63%)"}, {"measurement": "SAQ Question 1-4: Other reasons, number of patients", "setting": "Follow-up", "value": 10}, {"measurement": "SAQ Question 1-4: Other reasons, percent of patients", "setting": "Follow-up", "value": "(0.71%)"}, {"measurement": "SAQ Question 1-4: Severely limited, number of patients", "setting": "Follow-up", "value": 5}, {"measurement": "SAQ Question 1-4: Severely limited, percent of patients", "setting": "Follow-up", "value": "(0.36%)"}, {"measurement": "SAQ Question 1-4: Slightly limited, number of patients", "setting": "Follow-up", "value": 428}, {"measurement": "SAQ Question 1-4: Slightly limited, percent of patients", "setting": "Follow-up", "value": "(30.44%)"}, {"measurement": "SAQ Question 1-5: Mildly limited, number of patients", "setting": "Follow-up", "value": 181}, {"measurement": "SAQ Question 1-5: Mildly limited, percent of patients", "setting": "Follow-up", "value": "(12.87%)"}, {"measurement": "SAQ Question 1-5: Moderately limited, number of patients", "setting": "Follow-up", "value": 57}, {"measurement": "SAQ Question 1-5: Moderately limited, percent of patients", "setting": "Follow-up", "value": "(4.05%)"}, {"measurement": "SAQ Question 1-5: Not limited, number of patients", "setting": "Follow-up", "value": 765}, {"measurement": "SAQ Question 1-5: Not limited, percent of patients", "setting": "Follow-up", "value": "(54.41%)"}, {"measurement": "SAQ Question 1-5: Other reasons, number of patients", "setting": "Follow-up", "value": 8}, {"measurement": "SAQ Question 1-5: Other reasons, percent of patients", "setting": "Follow-up", "value": "(0.57%)"}, {"measurement": "SAQ Question 1-5: Severely limited, number of patients", "setting": "Follow-up", "value": 9}, {"measurement": "SAQ Question 1-5: Severely limited, percent of patients", "setting": "Follow-up", "value": "(0.64%)"}, {"measurement": "SAQ Question 1-5: Slightly limited, number of patients", "setting": "Follow-up", "value": 386}, {"measurement": "SAQ Question 1-5: Slightly limited, percent of patients", "setting": "Follow-up", "value": "(27.45%)"}, {"measurement": "SAQ Question 1-9: Mildly limited, % of cases", "setting": "Follow-up", "value": "(20.25%)"}, {"measurement": "SAQ Question 1-9: Mildly limited, cases", "setting": "Follow-up", "value": 276}, {"measurement": "SAQ Question 1-9: Moderately limited, % of cases", "setting": "Follow-up", "value": "(21.13%)"}, {"measurement": "SAQ Question 1-9: Moderately limited, cases", "setting": "Follow-up", "value": 288}, {"measurement": "SAQ Question 1-9: Not limited, % of cases", "setting": "Follow-up", "value": "(6.09%)"}, {"measurement": "SAQ Question 1-9: Not limited, cases", "setting": "Follow-up", "value": 83}, {"measurement": "SAQ Question 1-9: Other reasons, % of cases", "setting": "Follow-up", "value": "(4.77%)"}, {"measurement": "SAQ Question 1-9: Other reasons, cases", "setting": "Follow-up", "value": 65}, {"measurement": "SAQ Question 1-9: Severely-limited, % of cases", "setting": "Follow-up", "value": "(27.29%)"}, {"measurement": "SAQ Question 1-9: Severely-limited, cases", "setting": "Follow-up", "value": 372}, {"measurement": "SAQ Question 1-9: Slightly limited, % of cases", "setting": "Follow-up", "value": "(20.47%)"}, {"measurement": "SAQ Question 1-9: Slightly limited, cases", "setting": "Follow-up", "value": 279}, {"measurement": "8th question: Dissatisfied, patients (%)", "setting": "1 month after treatment", "value": "(0.13%)"}, {"measurement": "8th question: Highly satisfied, patients (%)", "setting": "1 month after treatment", "value": "(17.41%)"}, {"measurement": "8th question: Mostly dissatisfied, patients (%)", "setting": "1 month after treatment", "value": "(4.23%)"}, {"measurement": "8th question: Mostly satisfied, patients (%)", "setting": "1 month after treatment", "value": "(48.99%)"}, {"measurement": "8th question: Partly satisfied, patients (%)", "setting": "1 month after treatment", "value": "(29.23%)"}, {"measurement": "9th question: Few, patients (%)", "setting": "1 month after treatment", "value": "(25.86%)"}, {"measurement": "9th question: Mild, patients (%)", "setting": "1 month after treatment", "value": "(35.93%)"}, {"measurement": "9th question: Moderate, patients (%)", "setting": "1 month after treatment", "value": "(18.94%)"}, {"measurement": "9th question: Severe, patients (%)", "setting": "1 month after treatment", "value": "(2.01%)"}, {"measurement": "9th question: Uneffective, patients (%)", "setting": "1 month after treatment", "value": "(17.26%)"}, {"measurement": "10th question: Dissatisfied, patients (%)", "setting": "1 month after treatment", "value": "(22.24%)"}, {"measurement": "10th question: Highly satisfied, patients (%)", "setting": "1 month after treatment", "value": "(4.23%)"}, {"measurement": "10th question: Mostly dissatisfied, patients (%)", "setting": "1 month after treatment", "value": "(23.12%)"}, {"measurement": "10th question: Mostly satisfied, patients (%)", "setting": "1 month after treatment", "value": "(19.83%)"}, {"measurement": "10th question: Partly satisfied, patients (%)", "setting": "1 month after treatment", "value": "(30.58%)"}, {"measurement": "11th question: Continuously worried, patients (%)", "setting": "1 month after treatment", "value": "(6.04%)"}, {"measurement": "11th question: No worried, patients (%)", "setting": "1 month after treatment", "value": "(4.84%)"}, {"measurement": "11th question: Occasionally worried, patients (%)", "setting": "1 month after treatment", "value": "(41.24%)"}, {"measurement": "11th question: Often worried, patients (%)", "setting": "1 month after treatment", "value": "(21.76%)"}, {"measurement": "11th question: Seldom worried, patients (%)", "setting": "1 month after treatment", "value": "(26.12%)"}, {"measurement": "SAQ 4th question, 1-2 times per week: % of patients", "setting": "1 month after treatment", "value": "(17.41%)"}, {"measurement": "SAQ 4th question, 1-2 times per week: number of patients", "setting": "1 month after treatment", "value": 259}, {"measurement": "SAQ 4th question, 1-3 times per day: % of patients", "setting": "1 month after treatment", "value": "(6.52%)"}, {"measurement": "SAQ 4th question, 1-3 times per day: number of patients", "setting": "1 month after treatment", "value": 97}, {"measurement": "SAQ 4th question, <1 time per week: % of patients", "setting": "1 month after treatment", "value": "(9.07%)"}, {"measurement": "SAQ 4th question, <1 time per week: number of patients", "setting": "1 month after treatment", "value": 135}, {"measurement": "SAQ 4th question, Not used: % of patients", "setting": "1 month after treatment", "value": "(53.23%)"}, {"measurement": "SAQ 4th question, Not used: number of patients", "setting": "1 month after treatment", "value": 792}, {"measurement": "SAQ 4th question, ≧3 times per week: % of patients", "setting": "1 month after treatment", "value": "(13.71%)"}, {"measurement": "SAQ 4th question, ≧3 times per week: number of patients", "setting": "1 month after treatment", "value": 204}, {"measurement": "SAQ 4th question, ≧4 times per day: % of patients", "setting": "1 month after treatment", "value": "(0.07%)"}, {"measurement": "SAQ 4th question, ≧4 times per day: number of patients", "setting": "1 month after treatment", "value": 1}, {"measurement": "SAQ 5th question, Few: % of patients", "setting": "1 month after treatment", "value": "(21.67%)"}, {"measurement": "SAQ 5th question, Few: number of patients", "setting": "1 month after treatment", "value": 322}, {"measurement": "SAQ 5th question, Mild: % of patients", "setting": "1 month after treatment", "value": "(28.94%)"}, {"measurement": "SAQ 5th question, Mild: number of patients", "setting": "1 month after treatment", "value": 430}, {"measurement": "SAQ 5th question, Moderate: % of patients", "setting": "1 month after treatment", "value": "(18.24%)"}, {"measurement": "SAQ 5th question, Moderate: number of patients", "setting": "1 month after treatment", "value": 271}, {"measurement": "SAQ 5th question, None: % of patients", "setting": "1 month after treatment", "value": "(25.44%)"}, {"measurement": "SAQ 5th question, None: number of patients", "setting": "1 month after treatment", "value": 378}, {"measurement": "SAQ 5th question, Not medicated by doctors: % of patients", "setting": "1 month after treatment", "value": "(3.57%)"}, {"measurement": "SAQ 5th question, Not medicated by doctors: number of patients", "setting": "1 month after treatment", "value": 53}, {"measurement": "SAQ 5th question, Severe: % of patients", "setting": "1 month after treatment", "value": "(2.15%)"}, {"measurement": "SAQ 5th question, Severe: number of patients", "setting": "1 month after treatment", "value": 32}, {"measurement": "SAQ 6th question, Dissatisfied: % of patients", "setting": "1 month after treatment", "value": "(0.20%)"}, {"measurement": "SAQ 6th question, Dissatisfied: number of patients", "setting": "1 month after treatment", "value": 3}]}]}
